# Assay results as given in patent publication EP3381907A1, “SYMMETRICAL 2-AMINOPHENYL-BENZAZOLYL-5-ACETATE COMPOUNDS AND THEIR USE AS ANTI-HEPARANASE” (Leadiant Biosciences SA, priority 2017, dated 2018).
# Biological target: T1, heparanase (Homo sapiens, UniProt Q9Y251)
# T1 sequence (Q9Y251 158-543 limits assumed): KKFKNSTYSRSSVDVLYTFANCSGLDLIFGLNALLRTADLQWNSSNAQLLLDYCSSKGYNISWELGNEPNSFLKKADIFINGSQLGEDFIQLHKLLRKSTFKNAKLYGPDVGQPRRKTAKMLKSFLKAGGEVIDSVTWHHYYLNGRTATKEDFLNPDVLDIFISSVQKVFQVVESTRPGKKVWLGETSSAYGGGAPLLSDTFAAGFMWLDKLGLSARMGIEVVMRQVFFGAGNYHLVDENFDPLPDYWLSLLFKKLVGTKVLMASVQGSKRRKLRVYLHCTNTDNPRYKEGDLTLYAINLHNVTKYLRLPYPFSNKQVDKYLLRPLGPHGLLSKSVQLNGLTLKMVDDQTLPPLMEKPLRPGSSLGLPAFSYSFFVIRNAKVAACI
# T1 sequence (Q9Y251 36-109 limits assumed): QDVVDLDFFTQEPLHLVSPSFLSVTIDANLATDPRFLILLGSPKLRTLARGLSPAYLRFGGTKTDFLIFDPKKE
# Test: AGA*IA assay: colorimetric fondaparinux cleavage assay for heparanase inhibition (WST-1)
# Assay type: biochemical
# Conditions: 2.5 nM heparanase, 100 µM fondaparinux, pH 5.0, 3 h at 37°C; class symbols
# Procedure: All compounds were tested in a simple, accurate and robust microplate assay based on the cleavage of the synthetic heparin fragment, the pentasaccharide Fondaparinux (AGA*IA). This assay was originally developed by Hammond and coworkers [Hammond E, Li CP, Ferro V. Development of a colorimetric assay for heparanase activity suitable for kinetic analysis and inhibitor screening. Anal. Biochem. 396(1), 112-116 (2010)], where Fondaparinux corresponds to the methyl glycoside of the antithrombin III (ATIII)-activating pentasaccharide sequence of heparin. Fondaparinux is cleaved by heparanase to generate a reducing disaccharide, which can be quantitatively measured via a colorimetric or a fluorescence assay, the last by the fluorescent sensor polymer-H [Schiemann S, Lühn S, Alban S. Development of both colorimetric and fluorescence heparinase activity assays using fondaparinux as substrate. Anal. Biochem. 427(1), 82-89 (2012)].
# The assay measures the appearance of the disaccharide product of heparanase-catalyzed fondaparinux cleavage colorimetrically using the tetrazolium salt WST-1. Assay was essentially performed as described with minor modifications. Briefly, NUNC ELISA 96-well plates were pre-treated with a solution of 4% BSA (bovin serum albumin) in phosphate-buffered saline containing 0.05% Tween 20 (PBST), for 2 h at 37°C, then washed three times with PBST, dried by tapping on paper towel and stored at -20°C. Before use, once again, the plates were washed with PBST.
# Assay was carried out with 100 µl/well of assay solution containing 40 mM sodium acetate buffer (pH 5.0), 100 µM fondaparinux, 2.5 nM heparanase and serial dilutions of test compounds (tested in triplicate). Plates were sealed with adhesive tape and incubated, in the dark, for 3 h at 37°C, followed by development with 1.69 mM of the tetrazolium salt WST-1 solution in 0.1 M NaOH, for 1 h at 60°C. Then, the absorbance at 560 nm was measured through a microplate reader (Victor 3, Perkin Elmer).
# Finally, the measurements were corrected by subtracting both the reagent background and the inner absorbance value of test compound.
row,Structure (SMILES),IC50 [nM]
1,"O=C(O)Cc1ccc2oc(-c3ccc(NC(=O)Nc4ccc(-c5nc6cc(CC(=O)O)ccc6o5)cc4F)c(F)c3)nc2c1 [Compound 20, 2,2'-(((Carbonylbis(azanediyl))bis(3-fluoro-4,1-phenylene))bis(benzo[d]oxazole-2,5-diyl))diacetic acid]",50 to 490
2,"O=C(O)CNC(=O)Cc1ccc2oc(-c3ccc(NC(=O)Nc4ccc(-c5nc6cc(CC(=O)NCC(=O)O)ccc6o5)cc4F)c(F)c3)nc2c1 [Compound 25, 2,2'-((2,2'-(((Carbonylbis(azanediyl))bis(3-fluoro-4,1-phenylene))bis(benzo[d]oxazole-2,5-diyl))bis(acetyl))bis(azanediyl))diacetic acid]",50 to 490
